The text below walks through data of patent publication US5708033A, “Amide derivatives and their therapeutic use” (Glaxo Wellcome Inc., priority 1994, dated 1998).

Type in all cases: in vivo, rat (Lewis male)
Test [1] has as its system rat pleura (carrageenan-induced cell accumulation and edema formation). In words: modification of the standard carrageenan pleurisy assay (anti-inflammatory activity). Conditions: po, p.o. gavage to fasted rats 0.5 hr prior to intrapleural 50 μg carrageenan, exudate after 4 hr. On the procedure: The rats used in these experiments were Lewis males, weighing 160-180 g, assigned to groups consisting of 5 animals. Test compounds were given to fasted rats by oral gavage 0.5 hr prior to intrapleural injection of 50 μg carrageenan. After 4 hr, the pleural exudate was collected and the edema volume and cell number were determined. ED50 values were estimated by linear regression analysis, and represent the doses at which a given drug produced 50% inhibition of carrageenan-induced cell accumulation and edema formation within the rat pleura.

Test [2] deals with phalanges of one hind limb (algesic response). In words: phalanges algesic assay (strong analgesia). As to conditions: p.o. gavage to fasted rats, mechanical force clamp one hour later, 3 seconds maximum; for ED50: Rattus norvegicus, po, 1 h, read-out: p.o. ED50 (strong analgesia, 50% inhibition of latency response). On the procedure: The rats used in these studies were Lewis male weighing 160-180 g and assigned to groups of 5-6 animals. The phalanges algesic assay is an algesic test (no hyperalgesia). Test compounds were given to fasted rats by oral gavage. One hour later an F-shaped mechanical force clamp was applied to the phalanges of one hind limb which initiated an algesic response (vocalisation or flight). Latency (seconds) to the algesic response was determined with 3 seconds maximum allowed time. ED50 values were estimated by linear regression analysis and represent the dose at which a given compound extended the latency response to produce 50% inhibition using the formula:
(3 sec.-Control Latency)-(3 sec.-Test Latency)/3 sec.-Control

In test [3] the test system is rat hind limb (trypsin-induced hyperalgesia). Description: modification of the trypsin-induced rat hind limb hyperalgesic assay (mild analgesia). Conditions: po, 1 h, p.o. gavage to fasted rats 0.5 hours prior to subplantar 250 μg trypsin, evaluated one hour later, 4 seconds maximum latency, read-out: p.o. ED50 (mild analgesia, 50% inhibition of latency response). The method, then:
The rats used in these studies were Lewis male, weighing 160-180 g. and assigned to groups consisting of 5-6 animals. Test compounds were given to fasted rats by oral gavage 0.5 hours prior to the subplantar injection of 250 μg trypsin in one hind limb. One hour later the rats were evaluated for hyperalgesia using a F-shaped mechanical force clamp on the injected hind limb metatarsal area. Latency (seconds) to the algesic response (vocalisation or flight) was determined, with 4 seconds being the maximum latency allowed. ED50 values were estimated by linear regression analysis and represent the dose at which a given drug extended the latency response to produce 50% inhibition using the formula:
(4 sec.-Control Latency)-(4 sec.-Test Latency)/4 sec.--Control

Where [4] appears, read: read-out: p.o. ED50, Cells (50% inhibition of carrageenan-induced cell accumulation).
The mark [5] stands for this setting: read-out: p.o. ED50, Edema (50% inhibition of edema formation).

Read-outs that look alike come from different tables or passages of the source.

What is called ED50 is the midpoint of the dose-response relation.

Take `Cc1cc(Cl)c2c(c1)/C(=C/C(N)=O)CC2` [Example 8, (E)-2-(4-Chloro-6-methyl-1-indanylidene)acetamide]: the 50% effective dose (ED50) in test [1] (setting [4]) and in test [1] (setting [5]) was greater than 25 mg/kg each time. For the same compound, the “p.o. ED50 (strong analgesia, 50% inhibition of latency response)” value in test [2] was “Inactive at 45”.

With `NC(=O)/C=C1\CCc2c(Br)cc(F)cc21` [Example 7, (E)-2-(4-Bromo-6-Fluoro-1-indanylidene)acetamide], the figures for the median effective dose (ED50) in test [1] (setting [4]), in test [1] (setting [5]) and in test [2] were greater than 20 mg/kg, greater than 20 mg/kg and greater than 45 mg/kg, respectively.

For the compound `NC(=O)/C=C1\CCc2c(Cl)cc(Cl)cc21` [Example 3, (E)-2-(4,6-Dichloro-1-indanylidene)acetamide], the ED50 in test [1] (setting [4]) is 25 mg/kg; in test [1] (setting [5]), 20 mg/kg; in test [2] it was greater than 45 mg/kg; in test [3] it was 4 mg/kg.

As to `NC(=O)/C=C1\CCc2c(Cl)cc(F)cc21` [Example 2, (E)-2-(4-Chloro-6-fluoro-1-indanylidene)acetamide], the median effective dose (ED50) in test [1] (setting [4]) came out at 11 mg/kg; in test [1] (setting [5]) it was 11 mg/kg; in test [2] it was 30 mg/kg; in test [3], 4 mg/kg.

For the compound `CNC(=O)/C=C1\CCc2c(Cl)cc(F)cc21` [Example 1, (E)-2-(4-Chloro-6-fluoro-1-indanylidene)-N-Methylacetamide], the ED50 in test [1] (setting [4]) was 8 mg/kg; in test [1] (setting [5]) it was 5 mg/kg; in test [2], 60 mg/kg; in test [3], 2 mg/kg.

In the case of `NC(=O)/C=C1\CCc2c(F)cc(Cl)cc21` [Example 6, (E)-2-(6-Chloro-4-Fluoro-1-indanylidene)acetamide], the ED50 in test [1] (setting [4]) is greater than 25 mg/kg; in test [1] (setting [5]), greater than 25 mg/kg; in test [2], greater than 45 mg/kg; in test [3] it was greater than 10 mg/kg.
